Values quoted from earlier work, collected in paper PMC12846068, “Insights into Transport Function of the Murine Organic Anion-Transporting Polypeptide OATP1B2 by Comparison with Its Rat and Human Orthologues” (Toxics, 2025).

Target: T1, rOATP1B2 (Rattus norvegicus, UniProt Q9QZX8)
T1 construct: The full-length mOATP1B2 and rOATP1B2 consist of 689 and 678 amino acids
T1 sequence (Q9QZX8 1-687): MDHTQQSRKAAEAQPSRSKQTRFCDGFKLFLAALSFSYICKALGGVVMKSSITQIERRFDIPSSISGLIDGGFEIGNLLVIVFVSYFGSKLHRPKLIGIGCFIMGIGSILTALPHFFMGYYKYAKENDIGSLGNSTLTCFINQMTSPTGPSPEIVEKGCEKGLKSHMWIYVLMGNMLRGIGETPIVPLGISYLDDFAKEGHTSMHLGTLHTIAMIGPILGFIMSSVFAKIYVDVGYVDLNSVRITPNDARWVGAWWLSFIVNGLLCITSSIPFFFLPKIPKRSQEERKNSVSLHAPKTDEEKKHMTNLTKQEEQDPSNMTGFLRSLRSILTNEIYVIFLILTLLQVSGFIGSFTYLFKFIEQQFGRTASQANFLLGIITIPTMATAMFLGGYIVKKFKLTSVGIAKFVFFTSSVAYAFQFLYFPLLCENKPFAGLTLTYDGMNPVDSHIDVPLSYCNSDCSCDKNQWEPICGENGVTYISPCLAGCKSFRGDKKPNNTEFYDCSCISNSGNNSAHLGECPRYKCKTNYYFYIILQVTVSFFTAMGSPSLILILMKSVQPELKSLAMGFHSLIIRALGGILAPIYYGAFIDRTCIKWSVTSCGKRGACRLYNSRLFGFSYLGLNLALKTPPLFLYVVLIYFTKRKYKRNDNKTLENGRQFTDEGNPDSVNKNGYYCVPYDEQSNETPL
Parameters: method as in Ishida et al. (2018) [9]
Conditions: ref Ishida et al. (2018) [9]; read-out: Km, rOATP1B2-mediated uptake; cited from earlier work

CC(C)c1nc(N(C)S(C)(=O)=O)nc(-c2ccc(F)cc2)c1/C=C/[C@@H](O)C[C@@H](O)CC(=O)O [Rosuvastatin, rosuvastatin]
Km: 28.1 µM
